IC50 and MIC data for nine molecules are collected here from ChEMBL document CHEMBL4145614, “Cyclopeptides from the Sponge Stylissa flabelliformis” (J Nat Prod, 2018).

Where a SMILES comes first, the peptide text is derived from it. Bounds are passed on as bounds.

One test concerns K562. As to the kind of experiment: Cytotoxicity against human K562 cells after 72 hrs by sulforhodamine B assay. Format: functional, cell-based. The note with it: Homo sapiens, K562, 72 h.
The subject of the next test is Micrococcus luteus. Description: Antibacterial activity against Micrococcus luteus IFC 12708 measured after 24 hrs. Format: functional. The note with it: IFC 12708, 24 h.
The next test concerns Staphylococcus aureus. Description: Antibacterial activity against Staphylococcus aureus ATCC 6538P measured after 24 hrs. Format: functional.
In the next test the test system is Proteus vulgaris. Description: Antibacterial activity against Proteus vulgaris ATCC 3851 measured after 24 hrs. Format: functional. Conditions: ATCC 3851, 24 h.
The next test deals with MDA-MB-231. As to the kind of experiment: Cytotoxicity against human MDA-MB-231 cells after 72 hrs by sulforhodamine B assay. Format: functional, cell-based. The note with it: Homo sapiens, MDA-MB-231, 72 h. (In general: The SRB assay estimates cell density from bound dye.)
A further test deals with Aspergillus fumigatus. As to the kind of experiment: Antifungal activity against Aspergillus fumigatus HIC 6094 measured after 48 to 72 hrs. Format: functional.
The next test deals with SK-HEP1. Description: Cytotoxicity against human SKHEP1 cells after 72 hrs by sulforhodamine B assay. Format: functional, cell-based. The note with it: Homo sapiens, SK-HEP1, 72 h.
The test system of the next test is Salmonella typhimurium. As to the kind of experiment: Antibacterial activity against Salmonella typhimurium ATCC 14028 measured after 24 hrs. The note with it: Salmonella enterica, ATCC 14028, 24 h. Format: functional, Salmonella enterica subsp. enterica serovar Typhimurium.
Another test has as its system Trichophyton rubrum. As to the kind of experiment: Antifungal activity against Trichophyton rubrum IFO 9185 measured after 48 to 72 hrs. Format: functional.
Another test concerns A549. As to the kind of experiment: cells. Conditions: Homo sapiens, A549, 72 h.
Test [1] has as its system Trichophyton mentagrophytes. As to the kind of experiment: Antifungal activity against Trichophyton mentagrophytes IFO 40996 measured after 48 to 72 hrs. Format: functional.
The subject of a further test is SNU-638. Description: Cytotoxicity against human SNU638 cells after 72 hrs by sulforhodamine B assay. Format: functional, cell-based. Conditions: Homo sapiens, SNU-638, 72 h.
A further test relates to Candida albicans. Description: Antifungal activity against Candida albicans ATCC 10231 measured after 48 to 72 hrs. Format: functional.
The subject of a further test is HCT-116. As to the kind of experiment: Cytotoxicity against human HCT116 cells after 72 hrs by sulforhodamine B assay. Format: functional, cell-based. The note with it: Homo sapiens, HCT-116, 72 h.
The target of test [2] is Sodium/potassium-transporting ATPase. As to the kind of experiment: Inhibition of potassium-activated sodium/potassium ATPase in human placenta using 3-O-methylfluorescein phosphate as substrate measured for 90 secs by fluorescence assay.
The subject of the next test is Bacillus spizizenii. As to the kind of experiment: Antibacterial activity against Bacillus subtilis ATCC 6633 measured after 24 hrs. Format: functional. The note with it: ATCC 6633, 24 h.
Test [3] in a line: Inhibition of recombinant bacterial sortase A using Dabcyl-QALPETGEE-Edans as substrate measured after 1 hr by fluorescence assay. Also on record: species or system Bacteria.
A further test has as its system Escherichia coli. Description: Antibacterial activity against Escherichia coli ATCC 25922 measured after 24 hrs. Conditions: ATCC 25922, 24 h. Format: functional.

As usually defined, the IC50 is the midpoint of a concentration-inhibition curve. The term MIC denotes the smallest concentration in the dilution series that meets the test's criterion for growth inhibition.

Description for A549: Cytotoxicity against human A549 cells after 72 hrs by sulforhodamine B assay

`CC[C@H](C)[C@@H]1NC(=O)[C@H](Cc2ccccc2)NC(=O)[C@@H]2CCCN2C(=O)[C@H](Cc2ccc(O)cc2)NC(=O)[C@H](CCC(=O)O)NC(=O)[C@@H]2CCCN2C(=O)[C@@H]2CCCN2C1=O` (HELM PEPTIDE1{E.Y.P.F.I.P.P}$PEPTIDE1,PEPTIDE1,1:R1-7:R2$$$V2.0): the IC50 in the test with K562 is 3.9 µM; in the test with MDA-MB-231 it was 17 µM; in the test with SK-HEP1, 11 µM; in the test with A549, 19 µM; with SNU-638, 11 µM; with HCT-116 it was 6.2 µM. Further, the IC50 in test [2] and in [3] was above 100 µM in each case. Besides, the MIC in the test on Micrococcus luteus, against Staphylococcus aureus, against Proteus vulgaris, against Aspergillus fumigatus, against Salmonella typhimurium and against Trichophyton rubrum was above 128 µM throughout. The MIC (in test [1]; with Candida albicans; against Bacillus spizizenii; in the test with Escherichia coli) was above 128 µM throughout.
As to `CC[C@H](C)[C@@H]1NC(=O)[C@H](C)NC(=O)[C@H](CC(C)C)NC(=O)[C@@H]2CCCN2C(=O)[C@H](CC(=O)O)NC(=O)[C@H](Cc2ccc(O)cc2)NC(=O)[C@@H]2CCCN2C1=O` (HELM PEPTIDE1{A.I.P.Y.D.P.L}$PEPTIDE1,PEPTIDE1,1:R1-7:R2$$$V2.0), the IC50 in the test with K562, in the test on MDA-MB-231, in the test on SK-HEP1, in the test on A549, with SNU-638 and in the test on HCT-116 was above 50 µM in each case. The IC50 in test [2] and in test [3] was above 100 µM each time. Also, the MIC against Micrococcus luteus, against Staphylococcus aureus, against Proteus vulgaris, against Aspergillus fumigatus, in the test with Salmonella typhimurium and against Trichophyton rubrum was above 128 µM throughout. The MIC (in test [1]; in the test on Candida albicans; with Bacillus spizizenii; in the test with Escherichia coli) was above 128 µM each time.
For the molecule `COc1cc([C@@H]2c3cc4c(cc3[C@@H](O[C@@H]3O[C@@H]5CO[C@@H](C)O[C@H]5[C@H](O)[C@H]3O)[C@H]3COC(=O)[C@H]23)OCO4)cc(OC)c1O` [ETOPOSIDE], the IC50 is 1.3 µM in the test with K562; 4.4 µM in the test on MDA-MB-231; 0.93 µM in the test with SK-HEP1; 0.72 µM in the test with A549; 0.43 µM in the test on SNU-638; 0.68 µM in the test with HCT-116.
Consider `CC(C)C[C@@H]1NC(=O)[C@H](CO)NC(=O)[C@@H]2CCCN2C(=O)[C@H](Cc2ccc(O)cc2)NC(=O)[C@H](Cc2ccc(O)cc2)NC(=O)[C@@H]2CCCN2C(=O)[C@H](Cc2ccc(O)cc2)NC1=O` (HELM PEPTIDE1{L.Y.P.Y.Y.P.S}$PEPTIDE1,PEPTIDE1,1:R1-7:R2$$$V2.0), for which the concentration for half-maximal inhibition (IC50) in the test on K562, with MDA-MB-231, with SK-HEP1, in the test on A549, with SNU-638 and in the test on HCT-116 was above 50 µM in each case. In addition, the IC50 in test [2] and in test [3] was above 100 µM each time. Also, the MIC with Micrococcus luteus, against Staphylococcus aureus, against Proteus vulgaris, against Aspergillus fumigatus, in the test on Salmonella typhimurium and in the test with Trichophyton rubrum was above 128 µM throughout. Moreover, the MIC (in test [1]; in the test with Candida albicans; in the test on Bacillus spizizenii; against Escherichia coli) was above 128 µM each time.
On to `CC[C@H](C)[C@@H]1NC(=O)[C@@H]2CCCN2C(=O)[C@@H]2CCCN2C(=O)[C@H]([C@@H](C)CC)NC(=O)[C@H](Cc2ccc(O)cc2)NC(=O)[C@@H]2CCCN2C(=O)[C@@H]2CCCN2C(=O)[C@H](CC(C)C)NC(=O)[C@H](C(C)C)NC(=O)[C@H](Cc2ccccc2)NC1=O` (HELM PEPTIDE1{F.V.L.P.P.Y.I.P.P.I}$PEPTIDE1,PEPTIDE1,1:R1-10:R2$$$V2.0), for which the IC50 in the test on K562 stood at 0.29 µM; in the test with MDA-MB-231, 2.5 µM; with SK-HEP1 it was 2.3 µM; in the test with A549, 0.54 µM; in the test with SNU-638 it was 1.7 µM; in the test with HCT-116, 0.1 µM. Further, the IC50 in [2] and in [3] was above 100 µM throughout. The MIC against Micrococcus luteus, against Staphylococcus aureus, in the test with Proteus vulgaris, against Aspergillus fumigatus, in the test on Salmonella typhimurium and against Trichophyton rubrum was above 128 µM throughout. The MIC (in [1]; against Candida albicans; against Bacillus spizizenii; in the test with Escherichia coli) was above 128 µM each time.
Turning to `CC[C@H](C)[C@@H]1NC(=O)[C@@H]2CCCN2C(=O)[C@@H]2CCCN2C(=O)[C@H](C(C)C)NC(=O)[C@H](Cc2ccc(O)cc2)NC(=O)[C@@H]2CCCN2C(=O)[C@@H]2CCCN2C(=O)[C@H](CC(C)C)NC(=O)[C@H](C(C)C)NC(=O)[C@H](Cc2ccccc2)NC1=O` (HELM PEPTIDE1{F.V.L.P.P.Y.V.P.P.I}$PEPTIDE1,PEPTIDE1,1:R1-10:R2$$$V2.0), the IC50 in the test with K562 was 1.1 µM; with MDA-MB-231 it was 8.6 µM; in the test with SK-HEP1, 12 µM; in the test on A549, 1.4 µM; in the test on SNU-638 it was 2.2 µM; in the test on HCT-116, 1 µM. In addition, the IC50 in [2] and in test [3] was above 100 µM throughout. The MIC against Micrococcus luteus, in the test with Staphylococcus aureus, with Proteus vulgaris, in the test with Aspergillus fumigatus, in the test on Salmonella typhimurium and in the test on Trichophyton rubrum was above 128 µM in each case. Further, the MIC (in test [1]; against Candida albicans; against Bacillus spizizenii; against Escherichia coli) was above 128 µM throughout.
Take `C[C@@H]1NC(=O)[C@H]([C@@H](C)O)NC(=O)[C@H](Cc2ccc(O)cc2)NC(=O)[C@@H]2CCCN2C(=O)[C@H](Cc2ccc(O)cc2)NC(=O)[C@H](CCCNC(=N)N)NC(=O)[C@@H]2CCCN2C(=O)[C@H](CC(N)=O)NC1=O` [CYCLONELLIN] (HELM PEPTIDE1{A.N.P.R.Y.P.Y.T}$PEPTIDE1,PEPTIDE1,1:R1-8:R2$$$V2.0): the IC50 in the test with K562, in the test with MDA-MB-231, in the test with SK-HEP1, in the test with A549, in the test with SNU-638 and in the test with HCT-116 was above 50 µM throughout. Further, the IC50 in test [2] and in [3] was above 100 µM each time. The MIC against Micrococcus luteus, in the test on Staphylococcus aureus, in the test with Proteus vulgaris, against Aspergillus fumigatus, against Salmonella typhimurium and against Trichophyton rubrum was above 128 µM throughout. The MIC (in test [1]; in the test with Candida albicans; against Bacillus spizizenii; against Escherichia coli) was above 128 µM throughout.
Consider `CC[C@H](C)[C@@H]1NC(=O)[C@H](Cc2ccccc2)NC(=O)[C@@H]2CCCN2C(=O)[C@@H]([C@H](C)O)NC(=O)[C@@H]2CCCN2C(=O)[C@H](CO)NC(=O)[C@H](C)NC1=O`, for which the IC50 with K562 amounted to 30 µM; in the test on MDA-MB-231 it was 10 µM; in the test with SK-HEP1, 7.2 µM; in the test on A549, 7.4 µM; in the test on SNU-638, 24 µM; in the test on HCT-116 it was 4.5 µM. For the same molecule, the IC50 in test [2] and in test [3] was above 100 µM each time. For the same molecule, the MIC in the test on Micrococcus luteus, against Staphylococcus aureus, in the test with Proteus vulgaris, in the test with Aspergillus fumigatus, with Salmonella typhimurium and in the test with Trichophyton rubrum was above 128 µM in each case. The MIC (in [1]; against Candida albicans; against Bacillus spizizenii; against Escherichia coli) was above 128 µM throughout.
With `CC[C@H](C)[C@@H]1NC(=O)[C@H](C)NC(=O)[C@H](CC[S+](C)[O-])NC(=O)[C@H](C)NC(=O)[C@H](CC(N)=O)NC(=O)[C@H](Cc2ccccc2)NC(=O)[C@@H]2CCCN2C1=O` (stereo not given in full) (HELM PEPTIDE1{A.I.P.F.N.A.[CS(=O)CC[C@H](N[*:1])C(=O)[*:2]]}$PEPTIDE1,PEPTIDE1,1:R1-7:R2$$$V2.0), the IC50 in the test with K562 is 11 µM; in the test on MDA-MB-231, 12 µM; in the test on SK-HEP1 it was 13 µM; in the test on A549, 15 µM; in the test with SNU-638 it was 12 µM; with HCT-116 it was 12 µM. In addition, the IC50 in [2] and in test [3] was above 100 µM in each case. Besides, the MIC in the test on Micrococcus luteus, against Staphylococcus aureus, against Proteus vulgaris, in the test with Aspergillus fumigatus, against Salmonella typhimurium and against Trichophyton rubrum was above 128 µM throughout. In addition, the MIC (in test [1]; against Candida albicans; in the test on Bacillus spizizenii; with Escherichia coli) was above 128 µM each time.
